The results in this text go back to US11091472B2, “PI-kinase inhibitors with anti-infective activity” (The Board of Trustees of the Leland Stanford Junior …, priority 2016, dated 2021).

Structures are written as SMILES. Some results are limits rather than exact numbers.

The subject of one data set is HRV. Put plainly: Rhinovirus antiviral assay. Format: cell-based. As to conditions: Human rhinovirus sp.
A short description of a further data set: Cell toxicity (CC50). As to conditions: human, HuH-7 cells. Format: cell-based.
Another data set deals with HCV2a. Briefly: microbe, parasite or virus in culture. Particulars: Hepatitis C virus, Huh7.5, read-out: HCV2a EC50. Format: cell-based, HCV.
The target in another data set is PI3KC2G (Homo sapiens (Human), UniProt O75747). Briefly: PI3KC2G kinase assay. Format: biochemical. As to conditions: kinase activity. As for the experimental part:
PI-kinase assay: Compounds are tested in C.1.1. PI kinase assays as described by Shokat et al., “A membrane capture assay for lipid kinase activity.” Nat. Protoc.
(§1) Selected compounds of Table 1 and 2 were prepared and tested for inhibition activity in a variety of kinase assays.

In another data set the target is PI3K p110a (Homo sapiens (Human), UniProt P42336). Briefly: PI3K p110a kinase assay. Format: biochemical. As to conditions: kinase activity.
Chain of PI3K p110a (P42336 whole entry): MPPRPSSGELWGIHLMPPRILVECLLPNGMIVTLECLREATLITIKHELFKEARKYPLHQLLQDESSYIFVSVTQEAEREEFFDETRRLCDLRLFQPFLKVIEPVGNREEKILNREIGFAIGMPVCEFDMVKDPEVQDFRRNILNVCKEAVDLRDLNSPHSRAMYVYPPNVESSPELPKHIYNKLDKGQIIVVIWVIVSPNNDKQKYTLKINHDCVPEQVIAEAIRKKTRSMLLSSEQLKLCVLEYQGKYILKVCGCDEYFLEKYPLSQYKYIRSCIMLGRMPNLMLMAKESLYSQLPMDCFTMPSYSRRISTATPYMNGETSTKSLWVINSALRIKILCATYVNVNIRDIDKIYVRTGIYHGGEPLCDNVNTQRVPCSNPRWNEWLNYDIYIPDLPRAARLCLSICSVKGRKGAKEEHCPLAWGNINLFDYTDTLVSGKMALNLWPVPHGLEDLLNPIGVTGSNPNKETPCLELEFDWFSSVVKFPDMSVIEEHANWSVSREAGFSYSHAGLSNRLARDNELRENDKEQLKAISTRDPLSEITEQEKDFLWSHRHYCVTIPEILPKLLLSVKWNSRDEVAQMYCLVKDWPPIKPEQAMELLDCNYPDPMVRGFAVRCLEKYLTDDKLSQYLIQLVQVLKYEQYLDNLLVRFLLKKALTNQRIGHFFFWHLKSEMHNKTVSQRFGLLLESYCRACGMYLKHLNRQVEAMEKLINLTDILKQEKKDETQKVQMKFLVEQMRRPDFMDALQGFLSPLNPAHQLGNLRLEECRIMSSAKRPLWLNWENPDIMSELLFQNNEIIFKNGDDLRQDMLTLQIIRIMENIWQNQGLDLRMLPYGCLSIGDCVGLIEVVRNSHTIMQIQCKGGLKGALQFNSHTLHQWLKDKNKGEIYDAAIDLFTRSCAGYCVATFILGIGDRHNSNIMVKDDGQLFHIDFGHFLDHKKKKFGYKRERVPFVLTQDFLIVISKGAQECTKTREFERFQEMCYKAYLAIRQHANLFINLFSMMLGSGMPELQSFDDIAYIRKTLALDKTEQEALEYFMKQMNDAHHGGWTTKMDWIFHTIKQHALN
Chain of PI3K p110a (P27986 whole entry partner): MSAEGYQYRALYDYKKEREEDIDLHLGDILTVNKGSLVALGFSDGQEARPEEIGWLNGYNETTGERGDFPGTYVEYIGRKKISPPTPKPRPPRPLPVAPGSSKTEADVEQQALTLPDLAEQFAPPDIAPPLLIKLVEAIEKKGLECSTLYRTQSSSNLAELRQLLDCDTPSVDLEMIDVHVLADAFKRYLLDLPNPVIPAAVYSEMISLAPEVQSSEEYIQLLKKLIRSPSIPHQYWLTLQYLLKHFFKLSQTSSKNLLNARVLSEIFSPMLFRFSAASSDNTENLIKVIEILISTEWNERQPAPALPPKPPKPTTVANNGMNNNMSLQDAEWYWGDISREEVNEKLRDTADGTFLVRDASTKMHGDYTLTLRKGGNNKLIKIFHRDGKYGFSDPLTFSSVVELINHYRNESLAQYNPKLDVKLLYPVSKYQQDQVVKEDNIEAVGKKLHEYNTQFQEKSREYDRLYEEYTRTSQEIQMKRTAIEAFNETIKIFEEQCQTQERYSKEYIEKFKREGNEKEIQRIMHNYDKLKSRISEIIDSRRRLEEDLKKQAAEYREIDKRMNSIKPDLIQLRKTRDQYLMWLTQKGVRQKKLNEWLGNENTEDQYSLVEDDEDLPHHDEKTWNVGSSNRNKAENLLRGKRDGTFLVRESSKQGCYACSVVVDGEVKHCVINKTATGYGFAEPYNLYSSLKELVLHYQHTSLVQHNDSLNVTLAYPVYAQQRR
For another data set, the target named is PI3KC2B (Homo sapiens (Human), UniProt O00750). Briefly: PI3KC2B kinase assay. Format: biochemical. As to conditions: kinase activity. As for the experimental part:
PI-kinase assay: Compounds are tested in C.1.1. PI kinase assays as described by Shokat et al., “A membrane capture assay for lipid kinase activity.” Nat. Protoc. 2007; 2(10):2459-66.
as §1

For a further data set, the target named is PI3K p110g (Homo sapiens (Human), UniProt P48736). Put plainly: PI3K p110g kinase assay. Particulars: kinase activity. Format: biochemical.
Chain of PI3K p110g (P48736 whole entry): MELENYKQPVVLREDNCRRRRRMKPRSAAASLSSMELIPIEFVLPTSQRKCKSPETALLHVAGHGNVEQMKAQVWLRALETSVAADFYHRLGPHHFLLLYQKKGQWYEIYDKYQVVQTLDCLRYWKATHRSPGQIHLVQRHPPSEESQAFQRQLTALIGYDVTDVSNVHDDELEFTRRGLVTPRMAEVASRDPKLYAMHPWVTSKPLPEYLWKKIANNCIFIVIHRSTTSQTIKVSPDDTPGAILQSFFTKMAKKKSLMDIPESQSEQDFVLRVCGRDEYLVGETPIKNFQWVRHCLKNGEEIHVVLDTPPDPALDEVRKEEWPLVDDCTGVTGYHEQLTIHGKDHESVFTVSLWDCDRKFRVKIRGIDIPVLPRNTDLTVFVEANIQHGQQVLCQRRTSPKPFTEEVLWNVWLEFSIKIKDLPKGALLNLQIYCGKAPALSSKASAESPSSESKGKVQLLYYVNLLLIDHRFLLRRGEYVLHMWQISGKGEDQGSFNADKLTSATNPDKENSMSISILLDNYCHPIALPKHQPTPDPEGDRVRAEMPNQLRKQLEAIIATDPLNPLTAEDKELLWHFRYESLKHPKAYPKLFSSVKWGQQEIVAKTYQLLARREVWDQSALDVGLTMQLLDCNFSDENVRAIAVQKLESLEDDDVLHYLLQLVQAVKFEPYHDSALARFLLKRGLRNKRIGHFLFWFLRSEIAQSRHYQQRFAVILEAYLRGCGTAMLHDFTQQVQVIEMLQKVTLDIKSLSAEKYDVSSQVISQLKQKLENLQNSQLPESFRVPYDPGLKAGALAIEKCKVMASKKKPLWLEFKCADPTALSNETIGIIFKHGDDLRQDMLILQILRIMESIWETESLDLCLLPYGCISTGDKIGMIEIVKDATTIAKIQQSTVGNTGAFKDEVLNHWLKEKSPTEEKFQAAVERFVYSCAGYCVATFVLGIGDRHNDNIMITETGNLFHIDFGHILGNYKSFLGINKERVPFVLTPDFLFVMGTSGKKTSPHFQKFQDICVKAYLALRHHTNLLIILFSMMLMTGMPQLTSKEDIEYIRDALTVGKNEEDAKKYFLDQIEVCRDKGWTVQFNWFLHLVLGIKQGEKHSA
The next data set has as its target PI4KIIIB (Bos taurus (Bovine), UniProt O02810). Briefly: PI4KIIIβ kinase assay (immunoprecipitated HA-tagged enzyme, [γ-32P]-ATP). Format: biochemical. Particulars: kinase activity.
The target of the next data set is PI4KIIIA (Homo sapiens (Human), UniProt P42356). Briefly: PI4KIIIα kinase assay (immunoprecipitated HA-tagged enzyme, [γ-32P]-ATP). Format: biochemical. As to conditions: kinase activity.

Chain of PI4KIIIB (O02810 whole entry): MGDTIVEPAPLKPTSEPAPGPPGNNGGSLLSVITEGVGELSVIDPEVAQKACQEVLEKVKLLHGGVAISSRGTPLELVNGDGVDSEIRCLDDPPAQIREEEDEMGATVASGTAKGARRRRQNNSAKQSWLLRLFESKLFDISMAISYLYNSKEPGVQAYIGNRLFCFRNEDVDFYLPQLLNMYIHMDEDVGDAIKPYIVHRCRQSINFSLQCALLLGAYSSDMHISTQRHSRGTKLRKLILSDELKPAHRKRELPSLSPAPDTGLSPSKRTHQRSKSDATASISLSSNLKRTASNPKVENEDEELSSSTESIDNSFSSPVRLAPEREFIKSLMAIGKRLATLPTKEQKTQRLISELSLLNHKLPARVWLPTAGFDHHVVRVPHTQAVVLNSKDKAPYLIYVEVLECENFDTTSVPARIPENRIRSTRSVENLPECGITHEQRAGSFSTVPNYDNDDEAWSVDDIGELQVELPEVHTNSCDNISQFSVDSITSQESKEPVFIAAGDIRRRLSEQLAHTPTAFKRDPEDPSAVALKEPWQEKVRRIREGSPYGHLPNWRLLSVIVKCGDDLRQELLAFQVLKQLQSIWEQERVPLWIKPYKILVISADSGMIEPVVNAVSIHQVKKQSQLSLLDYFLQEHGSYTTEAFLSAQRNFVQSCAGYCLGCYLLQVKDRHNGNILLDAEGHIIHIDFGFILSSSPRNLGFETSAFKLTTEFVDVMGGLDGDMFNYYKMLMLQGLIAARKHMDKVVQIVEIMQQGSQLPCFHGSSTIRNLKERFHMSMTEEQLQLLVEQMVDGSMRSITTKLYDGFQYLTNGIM

By EC50 is commonly meant the concentration that produces a half-maximal response. The CC50 is the concentration giving 50% cytotoxicity. A high value points to lower toxicity to the cells. For the molecule `COc1ccc(NS(=O)(=O)c2cc(-c3sc(NC4CCCCC4)nc3C)ccc2OC)c(C)c1` [Compound S-66], the results for the EC50 in the data set with HRV and in the data set on HCV2a were under 0.001 µM and 1 to 10 µM, respectively. Also, the cytotoxic concentration (CC50) in “Cell toxicity (CC50)” is over 10 µM.

For orientation: IC50 means the point on the concentration scale where inhibition reaches its midpoint. A low value points to inhibition by little substance. For `COc1ccc(-c2sc(NC(=O)CC3CCCC3)nc2C)cc1S(=O)(=O)Nc1ccc(O)cc1` [Compound S-1], the IC50 on PI3KC2G is under 0.1 µM; on PI3K p110a, over 10 µM; on PI3KC2B, over 10 µM; at PI3K p110g, over 10 µM; at PI4KIIIB, under 0.1 µM. The same molecule registered a cytotoxic concentration (CC50) in the data set “Cell toxicity (CC50)” of over 10 µM. The EC50 with HCV2a lay in the range of 0.001 to 0.1 µM.

Take `COc1ccc(-c2sc(NC(C)C)nc2C)cc1S(=O)(=O)N[C@H]1CC[C@H](O)CC1` [Compound S-215]: the half-inhibitory concentration (IC50) against PI3KC2G was 1 to 10 µM; against PI3KC2B it was over 10 µM; at PI3K p110g, over 10 µM; against PI4KIIIB, under 0.1 µM; against PI4KIIIA, 1 to 10 µM.

For `COc1ncc(-c2sc(NC(=O)CC3CCOCC3)nc2C)cc1S(=O)(=O)Nc1cccc(C(=O)O)c1` [Compound S-265], the IC50 at PI3KC2G was 1 to 10 µM; against PI3K p110a it was over 10 µM; against PI3K p110g it was over 10 µM; against PI4KIIIB it was under 0.1 µM; on PI4KIIIA, under 0.1 µM.

On to `COc1ncc(-c2sc(NC(=O)CC3CCOCC3)nc2C)cc1S(=O)(=O)Nc1ccc(O)cc1` [Compound S-261], for which the IC50 is 0.1 to 1 µM at PI3KC2G, 0.1 to 1 µM against PI3K p110a, under 0.1 µM at PI4KIIIB and under 0.1 µM at PI4KIIIA. Moreover, the cytotoxic concentration (CC50) in the data set “Cell toxicity (CC50)” is over 10 µM. In addition, in the data set on HCV2a, the concentration giving a half-maximal response (EC50) was in the range of 0.001 to 0.1 µM.

As to `COc1ccc(-c2sc(NC(=O)CC3CCOCC3)nc2C)cc1S(=O)(=O)Nc1ccc(O)cc1C` [Compound S-231], the IC50 at PI3KC2G is 0.1 to 1 µM; against PI3KC2B, over 10 µM; against PI3K p110g, over 10 µM; against PI4KIIIB, under 0.1 µM.

As to `COc1ccc(NS(=O)(=O)c2cc(-c3sc(NC(=O)CC4CCCCC4)nc3C)ccc2OC)c(C)c1` [Compound S-85], the half-maximal cytotoxic concentration (CC50) in the data set “Cell toxicity (CC50)” is over 10 µM.

In the case of `COc1ccc(-c2sc(NC(=O)CC3CCOCC3)nc2C)cc1S(=O)(=O)Nc1ccc(F)cc1` [Compound S-170], the IC50 was over 10 µM against PI3KC2G; over 10 µM against PI3K p110a; over 10 µM against PI3K p110g; under 0.1 µM on PI4KIIIB; under 0.1 µM against PI4KIIIA.

In the case of `COc1ncc(-c2sc(NC(=O)CC3CCOCC3)nc2C)cc1S(=O)(=O)NC1CCCC(O)C1` (centres unmarked) [Compound S-263], in “Cell toxicity (CC50)”, the cytotoxic concentration (CC50) was over 10 µM. Also, in the data set with HCV2a, the concentration giving a half-maximal response (EC50) was in the range of 0.001 to 0.1 µM.

In “Cell toxicity (CC50)”, `COc1ccc(-c2sc(NCC3CCCCC3)nc2C)cc1S(=O)(=O)Nc1ccccc1F` [Compound S-29] returned a CC50 of over 10 µM.

In the data set “Cell toxicity (CC50)”, `COc1ccc(-c2sc(NCC3CCCCC3)nc2C)cc1S(=O)(=O)NC1CCCNC1` (centres unmarked) [Compound S-115] came in with a CC50 of over 10 µM. Also, the EC50 in the data set on HCV2a lay in the range of 0.1 to 1 µM.

With `COc1ncc(-c2sc(NC(=O)CC3CCOCC3)nc2C)cc1S(=O)(=O)N[C@H]1CC[C@@H](O)CC1` [Compound S-262], the half-maximal inhibitory concentration (IC50) on PI3KC2G is 0.1 to 1 µM; against PI3K p110a, over 10 µM; on PI4KIIIB, under 0.1 µM; against PI4KIIIA, under 0.1 µM.

In turn, `COc1ccc(NS(=O)(=O)c2cc(-c3sc(NC4CCCCCC4)nc3C)ccc2OC)c(C)c1` [Compound S-89] came in with a half-maximal cytotoxic concentration (CC50) in “Cell toxicity (CC50)” of over 10 µM.

Turning to `COc1ccc(-c2sc(NC(=O)CC3CCOCC3)nc2C)cc1S(=O)(=O)Nc1ccccc1C` [Compound S-228], the CC50 in the data set “Cell toxicity (CC50)” is over 10 µM.

Take `COc1ccc(-c2sc(N[C@H](C)CC3CCCCC3)nc2C)cc1S(=O)(=O)NC1CCNCC1` [Compound S-145]: the IC50 against PI3K p110a was over 10 µM; against PI3K p110g, over 10 µM; against PI4KIIIB, under 0.1 µM; on PI4KIIIA, 0.1 to 1 µM.

Take `COc1ccc(-c2sc(NCC3CCCCC3)nc2C)cc1S(=O)(=O)NCC1CCCCC1` [Compound S-128]: the IC50 against PI3KC2G was over 10 µM; against PI3K p110g, over 10 µM; on PI4KIIIB, 0.1 to 1 µM; against PI4KIIIA, over 10 µM.

`COc1ccc(-c2sc(NCC3CCCCC3)nc2C)cc1S(=O)(=O)NC1CC1` [Compound S-127]: the 50% inhibitory concentration (IC50) against PI3KC2G is over 10 µM; at PI3K p110g it was over 10 µM; against PI4KIIIB, 0.1 to 1 µM; against PI4KIIIA, over 10 µM.

Consider `COc1ccc(-c2sc(NC(=O)CC3CCOCC3)nc2C)cc1S(=O)(=O)Nc1cc(C)cc(O)c1` [Compound S-169], for which the IC50 was over 10 µM against PI3KC2G; over 10 µM at PI3K p110a; over 10 µM on PI3K p110g; under 0.1 µM against PI4KIIIB; under 0.1 µM on PI4KIIIA.

Turning to `COc1ccc(-c2sc(NC(=O)CCC3CCCC3)nc2C)cc1S(=O)(=O)NC1CCNCC1` [Compound S-160], the IC50 is 0.1 to 1 µM at PI3KC2G, over 10 µM at PI3KC2B, over 10 µM against PI3K p110g and under 0.1 µM at PI4KIIIB.

As for `COc1ncc(-c2sc(NC(=O)CC3CCOCC3)nc2C)cc1S(=O)(=O)Nc1ccc(F)cc1F` [Compound S-260], the half-maximal inhibitory concentration (IC50) on PI3KC2G is over 10 µM; on PI3K p110a it was over 10 µM; at PI3K p110g, over 10 µM; against PI4KIIIB, under 0.1 µM; on PI4KIIIA, under 0.1 µM. The same molecule displayed a CC50 in the data set “Cell toxicity (CC50)” of over 10 µM. Besides, the EC50 in the data set on HCV2a was in the range of 0.1 to 1 µM.

`COc1ccc(-c2sc(NC(=O)[C@@H](C)C3CCCCC3)nc2C)cc1S(=O)(=O)Nc1ccc(O)cc1` [Compound S-138] returned a CC50 in the data set “Cell toxicity (CC50)” of over 10 µM.

`COc1ccc(-c2sc(N[C@H](C)C3CCCCC3)nc2C)cc1S(=O)(=O)NC1CCNCC1` [Compound S-147]: the IC50 is over 10 µM against PI3K p110a, over 10 µM against PI3K p110g, under 0.1 µM on PI4KIIIB and 0.1 to 1 µM on PI4KIIIA.

As to `COc1ccc(-c2sc(N[C@H](C)C3CCCCC3)nc2C)cc1S(=O)(=O)N[C@H]1CC[C@H](O)CC1` [Compound S-193], the IC50 was over 10 µM on PI3KC2G, over 10 µM on PI3KC2B and under 0.1 µM on PI4KIIIB.

Regarding `COc1ncc(-c2sc(NC(=O)CC3CCOCC3)nc2C)cc1S(=O)(=O)Nc1cccc(O)c1` [Compound S-259], the IC50 at PI3KC2G was 1 to 10 µM; against PI3K p110a it was 1 to 10 µM; against PI4KIIIB, under 0.1 µM; at PI4KIIIA, under 0.1 µM.

Molecule `COc1ccc(-c2sc(NC3CCCCC3)nc2C)cc1S(=O)(=O)Nc1ccc(O)cc1C` [Compound S-106] gave a 50% cytotoxic concentration (CC50) in the data set “Cell toxicity (CC50)” of over 10 µM.

Regarding `COc1ccc(-c2sc(NC(C)(C)C)nc2C)cc1S(=O)(=O)N[C@H]1CC[C@H](O)CC1` [Compound S-216], the IC50 at PI3KC2G was 1 to 10 µM; at PI3KC2B, over 10 µM; against PI3K p110g, over 10 µM; against PI4KIIIB it was under 0.1 µM.
